Read-outs that look alike come from different tables or passages of the source.
Columns and labels:
[1] = system: breast tumor cells MDA-MB-231; test: MTT cell viability assay; assay type: cell-based, human; details: for IC50: Homo sapiens; for cell viability: FIG. 13
Experimental: The breast tumor cells (MDA-MB-231, MDA-MB-435, MDA-MB-453, MDA-MB-468 and MCF-7) were commercially obtained from the bioresource collection and research center (BCRC), and were cultured in a 10% FBS-DMEM culture medium (i.e., a DMEM culture medium including 10% fetal bovine serum (FBS)). The human breast cell MCF-10A was cultured in a 5% FBS-DMEM culture medium (including F12, insulin, hydrocortisol and epidermal growth factor). An environment of 5% CO2 was kept in the incubator at a constant temperature of 37° C. When a certain number of cells were generated in culture, the culture medium was removed after being centrifuged for 10 min at a rate of 900 rpm. The culture medium was replaced in 24 h before the experiment, and the number of cells was counted by a hemocytometer.
The cell viability was determined by a method of […] (MTT assay). The test method for assaying cell viability refers to steps provided by Parada-Turska et al.
The breast tumor cells MDA-MB-231 were inoculated in a 24-well plate (2.5×10^5 cells/well), and the next day after cells were adhered to the wall of the plate, the cells were washed with PBS. 1% FBS-DMEM culture medium was then added so as to synchronize cells. The next day compound II having different concentrations were added into the wells, and the cells were subsequently cultured in an atmosphere of 5% CO2 at 37° C. for 24 h. The cells were washed with PBS once, and 400 μl MTT agent was added in each well so as to react for 4 h. Then 400 μl 10% SDS was added in each well so as to react for 12 h. 200 μl supernatant was taken from the well and then added into a 96-well microplate, so as to measure the absorbance at 570 nm.
FIG. 13 separately illustrates the viabilities of cells treated with the compound II in different doses, and whether the viabilities of cells were recovered when the cells were treated with both the compound II and the antioxidant NAC, so as to illustrate the effect of increased reactive oxygen species caused by the compound II on the tumor cell proliferation. The test method for measuring the cell viability refers to steps described in test example 2-1. The breast tumor cells MDA-MD-231 were treated with the compound II of 0, 2, 5, 7.5, 10 and 15 μM for 24 h, and then the effect of the compound II on viability of breast tumor cells MDA-MD-231 was observed. FIG. 13 is a quantitative diagram, the data result was represented by mean±SD values, where n=3.

[2] = system: EMT-related proteins in human normal breast cells MCF-10A stimulated by TNF-α/TGF-β; test: western blotting of EMT-related proteins; assay type: cell-based
Experimental: FIG. 2A illustrates the expression results of EMT-related proteins in breast tumor cells MDA-MB-231 after the breast tumor cells MDA-MB-231 have been respectively cultured under compound II having concentrations of 0, 0.5, 1 and 2 μM for 24 h; and FIG. 2B illustrates the expression results of EMT-related proteins in breast tumor cells MCF-7 after the breast tumor cells MCF-7 have been respectively cultured under the compound II having concentrations of 0, 10, 15 and 20 μM for 24 h. FIG. 3A illustrates the western blotting results of EMT-related proteins in the breast tumor cells MDA-MB-468, where the breast tumor cells MDA-MB-468 are treated with the compound I having concentrations of 0, 0.5, 1 and 2 μM for 24 h, and FIG. 3B illustrates the western blotting results of EMT-related proteins in the breast tumor cells MDA-MB-435, where the breast tumor cells MDA-MB-435 are treated with the compound I having concentrations of 0, 2.5, 5 and 7.5 μM for 24 h. FIG. 4 illustrates the western blotting results of EMT-related proteins in the human normal breast cells MCF-10A stimulated by TNF-α/TGF-β, where the human normal breast cells MCF-10A are treated with the compound I having concentrations of 2 μM for 24 h. The human normal breast cells stimulated by TNF-α/TGF-β can cause TNF-α/TGF-β-induced EMT in the human normal breast cells MCF-10A. The steps of western blotting include: washing cells with PBS twice at 4° C.; adding a lysis buffer and rubbing the cells by a rubbr policeman so as to lyse cells; putting the lysed cell solution into a 1.5 ml microcentrifuge tube and shaking for 1 min; centrifuging at 12000 rpm for 10 min and taking the supernatant; measuring concentration of the protein through a Bio-Rad protein assay kit; and storing the remained extracted protein solution at −70° C.; taking 100 μg protein solution and adding a SDS/protein loading buffer having the same volume, where the SDS/protein loading buffer has a concentration two times larger than the protein solution; boiling the mixture of the protein solution and the SDS/protein loading buffer at 100° C. for 10 min; cooling and loading the protein samples in each hole of gel; adjusting the voltage to 100 V and running the protein samples on the gel until the tracking dye in the sample buffer reaches the bottom of the gel; and subsequently transferring the protein from the gel using electrophoresis. A PVDF membrane was soaked in methanol until the paper was totally wet. […] Then luminescence image equipment was used, where the PVDF was placed onto a black metal plate by a plastic pincer and the face including protein was upwards, a 1:1 mixed Chemiluminesent Substrate was added into the membrane and the exposure time depends on the fluorescence intensity of antibodies. […]

[3] = 2 μM with TNF-α/TGF-β 10 ng/ml, 24 h

Row | SMILES | IC50 ([1]; MDA-MB-231, 0-40 μM for 24 h, FIG. 1A, read-out: IC50 for inhibiting the MDA-MB-231) [µM] | IC50 ([1]; viability, MDA-MB-231 cell strain, Table 1, read-out: IC50) [µM] | cell viability ([1]; MDA-MB-231, 2-15 μM, 24 h) | cell viability ([1]; MDA-MB-231, with antioxidant NAC) | protein expression amount of E-cadherin and occludin [2, 3] | protein expression amount of vimentin and β-catenin [2, 3] | protein expression amount of E-cadherin and occludin ([2]; compound alone 2 μM) | protein expression amount of vimentin and β-catenin ([2]; compound alone 2 μM)
1 | COC1=C(OC)C(=O)C(C)=C(C)C1=O [compound II] | ~6.5 | 7.51 | significantly decreased | not influenced | – | – | – | –
2 | COC1=C(OC)C(=O)C(C)=CC1=O [compound I] | – | – | – | – | also increased | recovered the increase caused by TNF-α/TGF-β stimulating | increased | decreased

Reference: US20150087722A1, “TREATMENT FOR BREAST TUMOR CELL METASTASIS” (China Medical University, priority 2012, published 2015)
